From patent US7335814B2, “Transgenic cells expressing glucosyltransferase nucleic acids” (The University of York, priority 2000, dated 2008)

How the values were obtained:
Format in all cases: biochemical
[1] = molecular target: T1, UGT71C1 (Arabidopsis thaliana, UniProt O82381); assay: UGT71C1 glucosyltransferase specific activity towards phenolic compounds (reverse-phase HPLC); details: 1 mM phenolic compound, 5 mM UDP-glucose, 50 mM TRIS-HCl pH 7.0, 30° C., 30 min; mean of three replicates ± standard deviation
T1 construct: GST (N); made in house; host or cells: E. coli
T1 sequence (O82381 1-481): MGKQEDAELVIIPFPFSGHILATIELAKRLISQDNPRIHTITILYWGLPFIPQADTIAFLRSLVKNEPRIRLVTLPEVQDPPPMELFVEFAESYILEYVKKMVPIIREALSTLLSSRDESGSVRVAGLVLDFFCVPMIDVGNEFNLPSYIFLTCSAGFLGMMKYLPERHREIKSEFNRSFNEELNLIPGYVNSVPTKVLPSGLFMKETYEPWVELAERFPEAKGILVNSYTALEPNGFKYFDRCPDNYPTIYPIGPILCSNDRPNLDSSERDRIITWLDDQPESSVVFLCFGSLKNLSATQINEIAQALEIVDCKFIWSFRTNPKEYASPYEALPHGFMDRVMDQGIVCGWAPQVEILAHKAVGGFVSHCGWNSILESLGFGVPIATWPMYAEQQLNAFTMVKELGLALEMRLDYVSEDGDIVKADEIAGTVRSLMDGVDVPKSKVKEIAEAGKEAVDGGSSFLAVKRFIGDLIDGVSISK

[2] = molecular target: T2, recombinant GTase A233 (Arabidopsis thaliana, UniProt Q8W491); assay: Specific activity of recombinant GTase producing O-glucosides against lignin precursors (HPLC); details: 30° C.; ND = not detected
T2 construct: made in house; host or cells: E. coli

[3] = molecular target: T3, recombinant GTase A407 (Arabidopsis thaliana, UniProt O81498); assay: as above; details: 30° C.; ND = not detected
T3 construct: made in house; host or cells: E. coli
T3 sequence (O81498 1-481): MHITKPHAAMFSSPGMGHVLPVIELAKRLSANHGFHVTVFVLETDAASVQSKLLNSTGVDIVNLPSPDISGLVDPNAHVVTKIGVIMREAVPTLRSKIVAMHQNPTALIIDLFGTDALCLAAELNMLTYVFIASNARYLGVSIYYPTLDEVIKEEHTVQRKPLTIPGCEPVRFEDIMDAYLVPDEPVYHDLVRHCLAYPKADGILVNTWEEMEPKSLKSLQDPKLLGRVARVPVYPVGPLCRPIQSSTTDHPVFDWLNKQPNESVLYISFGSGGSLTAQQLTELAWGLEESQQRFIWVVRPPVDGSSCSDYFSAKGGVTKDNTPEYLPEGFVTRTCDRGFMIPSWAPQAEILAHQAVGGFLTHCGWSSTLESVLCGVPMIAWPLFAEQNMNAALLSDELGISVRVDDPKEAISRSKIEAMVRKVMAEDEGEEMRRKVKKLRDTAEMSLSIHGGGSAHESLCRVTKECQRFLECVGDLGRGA

[4] = molecular target: T4, recombinant GTase A961 (Arabidopsis thaliana, UniProt O82381); assay: as above; details: 30° C.; ND = not detected
T4 construct: made in house; host or cells: E. coli
T4 sequence (O82381 1-481): T1 sequence (O82381 1-481)

[5] = molecular target: T5, recombinant GTase A962 (Arabidopsis thaliana, UniProt O82382); assay: as above; details: 30° C.; ND = not detected
T5 construct: made in house; host or cells: E. coli
T5 sequence (O82382 1-474): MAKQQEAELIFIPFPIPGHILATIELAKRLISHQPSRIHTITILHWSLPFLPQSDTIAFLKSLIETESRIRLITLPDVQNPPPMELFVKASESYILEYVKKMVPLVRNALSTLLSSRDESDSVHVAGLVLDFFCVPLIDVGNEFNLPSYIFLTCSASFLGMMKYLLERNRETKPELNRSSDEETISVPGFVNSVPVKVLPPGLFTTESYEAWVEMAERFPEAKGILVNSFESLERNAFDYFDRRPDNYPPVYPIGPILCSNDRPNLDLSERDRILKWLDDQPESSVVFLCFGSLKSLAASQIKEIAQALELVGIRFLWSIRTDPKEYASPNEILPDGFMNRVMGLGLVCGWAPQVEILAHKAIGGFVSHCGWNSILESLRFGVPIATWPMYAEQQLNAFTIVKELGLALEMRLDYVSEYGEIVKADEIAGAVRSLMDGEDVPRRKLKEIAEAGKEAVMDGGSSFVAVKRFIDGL

[6] = molecular target: T6, recombinant GTase A119 (Arabidopsis thaliana, UniProt Q9LVR1); assay: as above; details: 30° C.; ND = not detected
T6 construct: made in house; host or cells: E. coli
T6 sequence (Q9LVR1 1-481): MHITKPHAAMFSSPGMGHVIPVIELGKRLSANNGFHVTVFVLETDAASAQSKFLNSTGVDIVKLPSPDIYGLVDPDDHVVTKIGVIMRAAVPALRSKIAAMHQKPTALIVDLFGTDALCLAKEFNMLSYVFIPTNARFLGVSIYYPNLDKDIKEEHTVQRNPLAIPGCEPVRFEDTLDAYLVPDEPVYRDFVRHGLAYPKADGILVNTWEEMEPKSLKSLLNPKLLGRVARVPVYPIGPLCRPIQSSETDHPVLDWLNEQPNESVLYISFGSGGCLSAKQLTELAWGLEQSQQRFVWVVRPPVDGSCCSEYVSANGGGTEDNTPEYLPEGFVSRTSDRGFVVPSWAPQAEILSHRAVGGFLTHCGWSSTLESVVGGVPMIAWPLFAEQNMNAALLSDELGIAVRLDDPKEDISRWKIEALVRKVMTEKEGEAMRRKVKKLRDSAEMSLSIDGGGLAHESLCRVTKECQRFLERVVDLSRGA

[7] = molecular target: T7, recombinant GTase A41 (Arabidopsis thaliana, UniProt Q5XF20); assay: Specific activity of recombinant GTase producing glucose ester against lignin precursors (HPLC); details: 5 mM UDPG, 0.2 μg GTase, 200 μl, 20° C., 30 min
T7 construct: made in house; host or cells: E. coli
T7 sequence (Q5XF20 7-490): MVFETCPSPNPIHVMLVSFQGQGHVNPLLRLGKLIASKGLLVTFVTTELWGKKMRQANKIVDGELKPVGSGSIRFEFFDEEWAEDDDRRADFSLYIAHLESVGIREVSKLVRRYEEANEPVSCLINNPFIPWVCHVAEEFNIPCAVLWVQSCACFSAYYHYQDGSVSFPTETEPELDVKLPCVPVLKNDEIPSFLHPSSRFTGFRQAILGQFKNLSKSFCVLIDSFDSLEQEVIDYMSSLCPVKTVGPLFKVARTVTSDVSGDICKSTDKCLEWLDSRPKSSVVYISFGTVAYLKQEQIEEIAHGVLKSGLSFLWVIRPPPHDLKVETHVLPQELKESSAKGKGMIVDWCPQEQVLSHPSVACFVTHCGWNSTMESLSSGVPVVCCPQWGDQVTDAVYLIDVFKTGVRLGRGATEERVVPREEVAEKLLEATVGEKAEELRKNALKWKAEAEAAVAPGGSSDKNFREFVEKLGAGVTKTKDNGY

[8] = molecular target: T8, recombinant GTase A43 (Arabidopsis thaliana, UniProt O23402); assay: as above; details: 0.5 ml of potential substrates, 5 mM UDPG, 0.2 μg GTase, 200 μl, 20° C., 30 min
T8 construct: made in house; host or cells: E. coli

[9] = molecular target: T9, recombinant GTase A062 (Arabidopsis thaliana, UniProt Q9LR44); assay: as above; details: 0.5 ml of potential substrates, 5 mM UDPG, 0.2 μg GTase, 200 μl, 20° C., 30 min
T9 construct: made in house; host or cells: E. coli
T9 sequence (Q9LR44 1-469): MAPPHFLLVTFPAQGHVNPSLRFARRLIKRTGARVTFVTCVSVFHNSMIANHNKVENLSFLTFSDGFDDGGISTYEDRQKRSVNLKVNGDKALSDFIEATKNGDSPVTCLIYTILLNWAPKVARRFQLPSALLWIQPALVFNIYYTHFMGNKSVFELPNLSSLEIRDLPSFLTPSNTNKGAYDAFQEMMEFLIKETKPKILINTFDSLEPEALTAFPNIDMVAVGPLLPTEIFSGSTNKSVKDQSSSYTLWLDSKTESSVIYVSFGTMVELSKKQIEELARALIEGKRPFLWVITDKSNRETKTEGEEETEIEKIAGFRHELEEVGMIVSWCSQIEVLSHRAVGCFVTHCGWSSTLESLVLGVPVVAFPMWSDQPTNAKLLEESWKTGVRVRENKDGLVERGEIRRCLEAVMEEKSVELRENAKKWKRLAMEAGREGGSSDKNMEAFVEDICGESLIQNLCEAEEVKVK

[10] = molecular target: T10, recombinant GTase A911 (Arabidopsis thaliana, UniProt O22182); assay: as above; parameters: made in house; host or cells: E. coli; details: 0.5 ml of potential substrates, 5 mM UDPG, 0.2 μg GTase, 200 μl, 20° C., 30 min
T10 sequence (O22182 1-456): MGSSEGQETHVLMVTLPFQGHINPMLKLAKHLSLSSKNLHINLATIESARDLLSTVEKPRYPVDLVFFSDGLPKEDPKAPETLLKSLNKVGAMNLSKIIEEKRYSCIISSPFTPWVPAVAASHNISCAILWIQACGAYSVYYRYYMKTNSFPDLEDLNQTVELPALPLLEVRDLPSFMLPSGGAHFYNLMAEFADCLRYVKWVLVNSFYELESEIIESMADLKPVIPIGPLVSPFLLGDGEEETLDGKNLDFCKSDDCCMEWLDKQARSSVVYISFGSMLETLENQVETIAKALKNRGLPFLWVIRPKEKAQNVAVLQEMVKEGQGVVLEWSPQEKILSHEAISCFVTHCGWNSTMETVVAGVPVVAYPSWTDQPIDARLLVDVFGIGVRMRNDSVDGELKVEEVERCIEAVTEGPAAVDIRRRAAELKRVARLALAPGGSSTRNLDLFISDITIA

| Specific activity (UGT71C1) [1] | Compound | Specific activity of A961 (substrate converted to 4-O-glucoside) [4] | Specific activity of A962 (substrate converted to 4-O-glucoside) [5] | further results |
| --- | --- | --- | --- | --- |
| 0 nkat/mg | O=C1C[C@@H](c2ccc(O)c(O)c2)Oc2cc(O)cc(O)c21 [Eriodictyol] | – | – | – |
| 34.8 ± 4.2 nkat/mg | O=c1ccc2cc(O)c(O)cc2o1 [Esculetin] | – | – | – |
| 0.7 ± 0.1 nkat/mg | O=c1cc(-c2ccc(O)c(O)c2)oc2cc(O)cc(O)c12 [Luteolin] | – | – | – |
| 1.4 ± 0.4 nkat/mg | O=c1c(O)c(-c2ccc(O)c(O)c2)oc2cc(O)cc(O)c12 [Quercetin] | – | – | – |
| 29.4 ± 3.9 nkat/mg | COc1cc2ccc(=O)oc2cc1O [Scopoletin] | – | – | – |
| 1.2 ± 0.2 nkat/mg | O=C(O)/C=C/c1cccc(O)c1 [m-Coumaric acid] | – | – | – |
| 1.5 ± 0.2 nkat/mg | O=C(O)/C=C/c1ccccc1O [o-Coumaric acid] | – | – | – |

Second part, the compound before the results:

| Compound | Specific activity (UGT71C1) [1] | Specific activity of A961 (substrate converted to 4-O-glucoside) [4] | Specific activity of A962 (substrate converted to 4-O-glucoside) [5] | further results |
| --- | --- | --- | --- | --- |
| O=C(O)c1ccc(O)c(O)c1 [3,4-dihydroxybenzoic acid] | 0 nkat/mg | – | – | – |
| O=C(O)c1ccc(O)cc1 [4-hydroxybenzoic acid] | 0 nkat/mg | – | – | – |
| COc1cc(/C=C/CO)ccc1O [Coniferyl alcohol, coniferyl alcohol] | – | 0.57 nkat/mg | 0.49 nkat/mg | Specific activity of A233 (substrate converted to 4-O-glucoside) [2]: 0.46 nkat/mg; Specific activity of A407 (substrate converted to 4-O-glucoside) [3]: 2.78 nkat/mg |
| COc1cc(/C=C/C=O)ccc1O [Coniferyl aldehyde, coniferyl aldehyde] | – | 0.16 nkat/mg | 0.34 nkat/mg | Specific activity of A119 (substrate converted to 4-O-glucoside) [6]: 1.08 nkat/mg |
| COc1cc(/C=C/C(=O)O)cc(OC)c1O [Sinapic acid, sinapic acid] | 0 nkat/mg | 0.01 nkat/mg | 0.01 nkat/mg | Specific activity of A41 (substrate converted to glucose ester) [7]: 5.35 nkat/mg; Specific activity of A43 (substrate converted to glucose ester) [8]: 0.05 nkat/mg; Specific activity of A062 (substrate converted to glucose ester) [9]: 0.1 nkat/mg; Specific activity of A233 (substrate converted to 4-O-glucoside) [2]: 0.39 nkat/mg; Specific activity of A407 (substrate converted to 4-O-glucoside) [3]: 65.39 nkat/mg; Specific activity of A911 (substrate converted to glucose ester) [10]: 0.15 nkat/mg |
| O=C/C=C/c1ccc(O)cc1 [p-coumaryl aldehyde] | – | 0.01 nkat/mg | 0.02 nkat/mg | Specific activity of A119 (substrate converted to 4-O-glucoside) [6]: 0.03 nkat/mg |
| COc1cc(/C=C/CO)cc(OC)c1O [sinapyl alcohol] | – | 0.35 nkat/mg | 0.45 nkat/mg | Specific activity of A233 (substrate converted to 4-O-glucoside) [2]: 0.05 nkat/mg; Specific activity of A119 (substrate converted to 4-O-glucoside) [6]: 126.16 nkat/mg; Specific activity of A407 (substrate converted to 4-O-glucoside) [3]: 114.76 nkat/mg |
| COc1cc(/C=C/C=O)cc(OC)c1O [sinapyl aldehyde] | – | 0.57 nkat/mg | 0.50 nkat/mg | Specific activity of A119 (substrate converted to 4-O-glucoside) [6]: 4.55 nkat/mg |
| Catechin | 0 nkat/mg | – | – | – |
